Molecular target: D(2) dopamine receptor (Homo sapiens, UniProt P14416)
Assay: Radioligand Competition Binding Assay
Protocol: A 10 cm culture dish was used for transfection with […] of dopamine D2 receptors and 40 μL of polyethylenimine (PEI hereafter). […] A vacuum pump was used to suck off the culture medium, 3 mL of lysis buffer was added to each culture dish, and the cells were placed in a 4° C. cold room for 10 minutes. After the cells were detached, the cells were transferred to a 15 mL centrifuge tube and centrifuged at 1500 rpm for 5 minutes at 4° C., and the supernatant was discarded. The cell pellet was transferred to a tissue homogenizer, and 3 mL of lysis buffer was added and fully ground until the cells were broken. Then, cell suspension was equally aliquoted into several EP tubes, centrifuged at 12000 rpm for 5 minutes at 4° C., and the supernatant was discarded. […] First, a standard binding buffer was added to the cell membrane component containing the dopamine D2 receptors, and the cell membrane was disrupted and resuspended with an electric tissue homogenizer. 30 μL of membrane protein suspension was added to each well of a 96-well plate. […] Next, 30 μL of [3H]-Methylspiperone was added to each well of the 96-well plate. […] The machine readout value reflected the amount of [3H]-Methylspiperone bound on the membrane, and after further data processing, the affinity Ki values of different compounds for the dopamine D2 receptors were obtained.

Sequence of D(2) dopamine receptor (P14416 whole entry): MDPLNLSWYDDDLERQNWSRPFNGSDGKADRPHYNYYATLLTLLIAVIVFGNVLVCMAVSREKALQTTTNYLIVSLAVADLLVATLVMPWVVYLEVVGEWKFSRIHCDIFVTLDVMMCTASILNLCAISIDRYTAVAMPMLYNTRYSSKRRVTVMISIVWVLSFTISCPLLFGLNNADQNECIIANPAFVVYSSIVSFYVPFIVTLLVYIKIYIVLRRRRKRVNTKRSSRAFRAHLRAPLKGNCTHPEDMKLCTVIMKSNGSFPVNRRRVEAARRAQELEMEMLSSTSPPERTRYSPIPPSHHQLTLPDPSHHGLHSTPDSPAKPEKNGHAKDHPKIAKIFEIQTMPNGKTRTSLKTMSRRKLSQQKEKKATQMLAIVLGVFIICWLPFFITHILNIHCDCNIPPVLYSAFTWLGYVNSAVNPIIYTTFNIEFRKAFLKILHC

Ki: 38 nM
Structure (SMILES): CCOc1cccc2c3c(oc12)CN(CCCCc1ccc2ccc(=O)[nH]c2c1)CC3 [US20250109139, Compound I-A25]

Reference: BindingDB's records for patent US20250109139 (Shanghaitech University, 2025)
